Test results from patent US4310660A, “Lincomycin compounds” (The Upjohn Company, priority 1980, dated 1982).
Structures can show the parent of a compound that is named as a salt. Where two headings read alike, the source gives them in different places.

Key:
Eubacterium lentum = assay: MIC vs. anaerobic bacteria, agar dilution; assay type: cell-based; conditions: Eggerthella lenta, UC6522, UC 6522, read-out: Minimal Inhibitory Concentration (MIC)
[1] = test system: Bacteroides melaninogenicus; assay: MIC vs. anaerobic bacteria, agar dilution; assay type: cell-based; conditions: UC6326, UC 6326, read-out: Minimal Inhibitory Concentration (MIC)
Clostridium novyi B = assay: MIC vs. anaerobic bacteria, agar dilution; assay type: cell-based; conditions: UC6329, UC 6329, read-out: Minimal Inhibitory Concentration (MIC)
Description: (§1) The procedure for the above test is as follows: Serial two-fold dilutions of drug are prepared in 1.0 ml volumes of Schaedler Broth, and 9.0 ml of molten (47° C.) Wilkens-Chalgren Agar Medium, infra, is added to the antibiotic-supplemented broth. After mixing with the antibiotic, the agar is poured into 100 mm×20 mm petri dishes. The dishes are allowed to stand on the bench overnight prior to inoculation.
(§2) Cultures are streaked on Wilkens-Chalgren Agar, and grown for 48 hours at 37° C. in a BBL Anaerobe Jar. Growth from the plate is harvested, and a cell suspension is made in Schaedler broth to equal the turbidity of a 0.5 McFarland Standard (10^8 cells/ml). The suspension is pipetted into the wells of a Steers replicator, and approx. 1-2 μl is delivered to the surface of the agar plates. After allowing a few minutes for the inoculum to dry, the plates are placed in a BBL Anaerobe Jar (atomsphere of 85% N, 10% H, 5% CO2) and incubated at 37° C. for 72 hours.
(§3) The Minimal Inhibitory Concentration (MIC) is read as the least amount of drug that inhibits growth. A very faint film of growth, or <3 is colonies is considered negative.

Clostridium tentani = assay: MIC vs. anaerobic bacteria, agar dilution; assay type: cell-based; conditions: UC6521, UC 6521, read-out: Minimal Inhibitory Concentration (MIC)
Description: as §1, §2, §3

Clostridium sordellii = assay: MIC vs. anaerobic bacteria, agar dilution; assay type: cell-based; conditions: Paraclostridium sordellii, UC6505, UC 6505, read-out: Minimal Inhibitory Concentration (MIC)
Description: as §1, §2, §3

Clostridium tertium = assay: MIC vs. anaerobic bacteria, agar dilution; assay type: cell-based; conditions: UC6508, UC 6508, read-out: Minimal Inhibitory Concentration (MIC)
Bacteroides distasonis = assay: MIC vs. anaerobic bacteria, agar dilution; assay type: cell-based; conditions: Parabacteroides distasonis, UC6518, UC 6518, read-out: Minimal Inhibitory Concentration (MIC)
D. pneumoniae I = assay: Mouse Protection Test; assay type: in vivo; conditions: Streptococcus pneumoniae, 168 h, strain Felton I, read-out: Median Protective Dose (CD50)
Source text: (§4) Immediately before use, the suspensions were thawed quickly and properly diluted. Infection was via the intrapertioneal route.
(§5) Treatment of the infected groups was begun immediately and continued once per day for 4 days (first 24 hr period=1). Groups of untreated mice served as virulence controls for the culture.
(§6) Seven days after the treatment regimen was begun the surviving animals were sacrificed and the median protective dose of the antibiotic calculated on the basis of mortality rates in the treatment groups. The median protective dose and its 95% confidence interval were calculated according to the method of Spearmen & Karber as programmed on a 360 digital computer.
(§7) U-60,970E was also tested in vivo in standard laboratory mice which were experimentally infected with bacteria. The test was conducted in comparison with U-57,930E.

D. pneumoniae III = assay: Mouse Protection Test; assay type: in vivo; conditions: strain MPI III, two experiments listed; for ED50: Streptococcus pneumoniae, 168 h, read-out: Median Protective Dose (CD50); for Median Protective Dose (CD50): 10080 min, listed as U-57930E . Hcl
Source text: as §4, §5, §6, §7

Actinomyces naeslundii = assay: MIC vs. anaerobic bacteria, agar dilution; assay type: cell-based; conditions: UC5920, read-out: Minimal Inhibitory Concentration (MIC)
[2] = test system: Peptococcus asaccharolyticus; assay: MIC vs. anaerobic bacteria, agar dilution; assay type: cell-based; conditions: Peptoniphilus asaccharolyticus, UC6214, UC 6214, read-out: Minimal Inhibitory Concentration (MIC)
Fusobacterium nucleatum = assay: MIC vs. anaerobic bacteria, agar dilution; assay type: cell-based
Staphylococcus aureus = assay: MIC vs. aerobic bacteria, microplate broth-dilution (BHI); assay type: cell-based; conditions: Staphylococcus aureus, read-out: Minimal Inhibitory Concentration (MIC)
Clostridium botulinum A = assay: microbe, parasite or virus in culture; assay type: cell-based; conditions: UC6506, read-out: Minimal Inhibitory Concentration (MIC)
Clostridium bifermentans = assay: MIC vs. anaerobic bacteria, agar dilution; assay type: cell-based; conditions: Paraclostridium bifermentans, UC6507, UC 6507, read-out: Minimal Inhibitory Concentration (MIC)

In the case of `CC[C@@H]1CCN[C@H](C(=O)N[C@@H]([C@H]2O[C@H](SC)[C@H](O)[C@@H](O)[C@H]2O)[C@H](C)Cl)C1` [U-57,930E, 4-Cis-ethyl-1-pipecolic acid amide of 7-Cl-MTL.HCl], the MIC (Eubacterium lentum) is reported as 1 µg/mL, the MIC [1] is reported as 0.06 µg/mL and the MIC (Clostridium novyi B) is reported as 0.12 µg/mL. For the same molecule, the MIC (Clostridium tentani) was ≤ 0.03 µg/mL, the MIC (Clostridium sordellii) was 0.5 µg/mL and the MIC (Clostridium tertium) was 7.8 µg/mL. The MIC (Bacteroides distasonis) was ≤ 0.03 µg/mL, the ED50 (D. pneumoniae I; oral) was 15.4 mg/kg and the ED50 (D. pneumoniae I; sc, subcutaneous) was 1.54 mg/kg. For the same molecule, the ED50 (D. pneumoniae III; po, oral) was 14.4 mg/kg, the ED50 (D. pneumoniae III; sc, subcutaneous) was 2.68 mg/kg and the “Median Protective Dose (CD50)” value (D. pneumoniae III; oral) was 16.49 (10.51-25.88) mg/kg. For the same molecule, the “Median Protective Dose (CD50)” value (D. pneumoniae III; subcutaneous) was 2.5 (1.69-3.69) mg/kg, the MIC (Actinomyces naeslundii) was 0.25 µg/mL and the MIC [2] was 0.25 µg/mL. The MIC (Fusobacterium nucleatum; UC6324, UC 6324, read-out: Minimal Inhibitory Concentration (MIC)) was 0.06 µg/mL, the MIC (Fusobacterium nucleatum; UC6516, UC 6516, read-out: Minimal Inhibitory Concentration (MIC)) was 0.12 µg/mL and the MIC (Staphylococcus aureus; UC76, S. aureus UC 76) was 0.1 µg/mL. For the same molecule, the MIC (Staphylococcus aureus; UC570, S. aureus UC 570) was 0.39 µg/mL, the MIC (Staphylococcus aureus; UC571, S. aureus UC 571) was 0.78 µg/mL and the MIC (Staphylococcus aureus; UC746, S. aureus UC 746) was 0.05 µg/mL. The MIC (Staphylococcus aureus; UC6675, S. aureus UC 6675) was 0.39 µg/mL, the MIC (Staphylococcus aureus; UC6685, S. aureus UC 6685) was > 25 µg/mL and the MIC (Staphylococcus aureus; UC6686, S. aureus UC 6686) was 0.2 µg/mL. For the same molecule, the MIC (Staphylococcus aureus; UC6687, S. aureus UC 6687) was 0.2 µg/mL, the MIC (Staphylococcus aureus; UC6688, S. aureus UC 6688) was > 25 µg/mL and the MIC (Staphylococcus aureus; UC6689, S. aureus UC 6689) was 0.78 µg/mL. The MIC (Staphylococcus aureus; UC6690, S. aureus UC 6690) was 0.2 µg/mL, the MIC (Staphylococcus aureus; UC6691, S. aureus UC 6691) was 0.2 µg/mL and the MIC (Staphylococcus aureus; UC6692, S. aureus UC 6692) was > 25 µg/mL. The MIC (Staphylococcus aureus; UC6693, S. aureus UC 6693) was 0.78 µg/mL, the MIC (Staphylococcus aureus; UC6694, S. aureus UC 6694) was > 25 µg/mL and the MIC (Staphylococcus aureus; UC6695, S. aureus UC 6695) was 0.39 µg/mL. The MIC (Staphylococcus aureus; UC6696, S. aureus UC 6696) was 0.39 µg/mL, the MIC (Clostridium botulinum A) was ≤ 0.03 µg/mL and the MIC (Clostridium bifermentans) was 0.06 µg/mL.
